Results on 16 molecules are retold here after PubChem BioAssay (NCI).

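48-hour exposure; five concentrations; linearly interpolated endpoints. TGI marks complete inhibition of growth.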

Some test systems named below: MOLT-4 leukemia; U251 CNS; NCI-H23 lung; HT29 colon; TK-10 renal; PC-3 prostate; LOX IMVI melanoma; A498 renal; BT-549 breast; SF-268 CNS.
What all share (assay): growth of human tumour cells (NCI), 48 h

Regarding `CS(=O)(=O)OCCN1CCC2(CC1)SSC1(CCN(CCOS(C)(=O)=O)CC1)S2`, the TGI in the experiment on MOLT-4 leukemia was more than 100 µM; in the experiment on U251 CNS it was more than 100 µM; in the experiment on NCI-H23 lung it was more than 100 µM; with HT29 colon, more than 100 µM; in the experiment with TK-10 renal, 55.8 µM; with PC-3 prostate, more than 100 µM. Besides, the TGI was 97.8 µM with LOX IMVI melanoma, 56.1 µM in the experiment with A498 renal, more than 100 µM in the experiment with BT-549 breast and 58.1 µM in the experiment on SF-268 CNS.
Consider `C/C(O)=C(\C=N\C(N)=S)C(=O)Nc1ccccc1C`, for which the TGI in the experiment on MOLT-4 leukemia, with U251 CNS, in the experiment on NCI-H23 lung, in the experiment with HT29 colon, in the experiment on TK-10 renal and in the experiment with PC-3 prostate was more than 100 µM throughout. The TGI in the experiment on LOX IMVI melanoma, with A498 renal, with BT-549 breast and in the experiment on SF-268 CNS was more than 100 µM each time.
Take `CCN(CC)CCO/N=C1\CC[C@H]2[C@@H]3CC=C4C[C@@H](O)CC[C@]4(C)[C@H]3CC[C@]12C`: the TGI worked out at 40.4 µM with MOLT-4 leukemia; 35.9 µM with U251 CNS; 33.4 µM in the experiment with NCI-H23 lung; 22.5 µM in the experiment on HT29 colon; 96.1 µM with TK-10 renal; 50.2 µM in the experiment with PC-3 prostate. The TGI in the experiment on LOX IMVI melanoma was 31.1 µM; in the experiment with A498 renal it was 35.9 µM; with BT-549 breast it was 44.4 µM; with SF-268 CNS, more than 100 µM.
Consider `CC(C)CCC[C@@H](C)[C@H]1CC[C@H]2[C@@H]3CC=C4C[C@@H](OC(=O)c5cccc6c(=O)c7ccccc7[nH]c56)CC[C@]4(C)[C@H]3CC[C@]12C`, for which the TGI with MOLT-4 leukemia, with U251 CNS, in the experiment on NCI-H23 lung, in the experiment with HT29 colon, in the experiment on TK-10 renal and in the experiment with PC-3 prostate was more than 75 µM in each case. Further, the TGI in the experiment on LOX IMVI melanoma, in the experiment with A498 renal, in the experiment on BT-549 breast and with SF-268 CNS was more than 75 µM throughout.
Consider `COc1ccc(C(O)c2ccc3c(c2)OCO3)cc1` (stereo not given), for which the TGI in the experiment with MOLT-4 leukemia, with U251 CNS, with NCI-H23 lung, with HT29 colon, in the experiment with TK-10 renal and in the experiment on PC-3 prostate was more than 100 µM each time. The TGI in the experiment with LOX IMVI melanoma, in the experiment on A498 renal, in the experiment on BT-549 breast and in the experiment on SF-268 CNS was more than 100 µM each time.
As for `CCOC(=O)c1ccc2nc(NC(=O)COC(=O)CSc3nc(C)cc(C)n3)sc2c1`, the TGI with MOLT-4 leukemia, with U251 CNS, in the experiment on NCI-H23 lung, in the experiment on HT29 colon, in the experiment with TK-10 renal and in the experiment with PC-3 prostate was more than 100 µM each time. Moreover, the TGI in the experiment with LOX IMVI melanoma, in the experiment on A498 renal, with BT-549 breast and in the experiment with SF-268 CNS was more than 100 µM in each case.
On to `O=C(/C=C/c1ccc(-c2ccccc2[N+](=O)[O-])o1)NCc1ccc(C(=O)NCCc2ccccc2)cc1`, for which the TGI in the experiment on MOLT-4 leukemia, in the experiment with U251 CNS, in the experiment with NCI-H23 lung, with HT29 colon, in the experiment on TK-10 renal and in the experiment on PC-3 prostate was more than 100 µM each time. Moreover, the TGI in the experiment with LOX IMVI melanoma, in the experiment on A498 renal, with BT-549 breast and in the experiment with SF-268 CNS was more than 100 µM throughout.
In the case of `CC(=O)NC1C(CO)O[C@@H]2OC(C)(C)O[C@H]12` (stereo not given in full), the TGI in the experiment on MOLT-4 leukemia, with U251 CNS, in the experiment on NCI-H23 lung, in the experiment with HT29 colon, in the experiment on TK-10 renal and with PC-3 prostate was more than 100 µM in each case. Besides, the TGI with LOX IMVI melanoma, in the experiment with A498 renal, with BT-549 breast and with SF-268 CNS was more than 100 µM in each case.
Turning to `O=C(O)/C=C(/CC(=O)O)C(=O)O`, the TGI was 38.4 µM in the experiment with MOLT-4 leukemia; 41.2 µM with U251 CNS; 57.2 µM in the experiment with NCI-H23 lung; 59.2 µM with HT29 colon; 54.6 µM in the experiment with TK-10 renal; 40.2 µM in the experiment on PC-3 prostate. The TGI in the experiment with LOX IMVI melanoma came out at 47.1 µM; in the experiment with A498 renal, 32.7 µM; in the experiment with BT-549 breast it was 43.7 µM; in the experiment on SF-268 CNS, 40 µM.
Turning to `CCOC(=O)c1ccc(C(=O)C(C(C)=O)C(=O)OC(C)(C)C)n1C` (stereo not given), the TGI in the experiment on MOLT-4 leukemia, in the experiment with U251 CNS, in the experiment with NCI-H23 lung, in the experiment with HT29 colon, in the experiment with TK-10 renal and with PC-3 prostate was more than 100 µM in each case. The TGI in the experiment on LOX IMVI melanoma, in the experiment on A498 renal, with BT-549 breast and in the experiment with SF-268 CNS was more than 100 µM throughout.
For `S=C(N/N=C\C=N/NC(=S)N1CCCCCC1)N1CCCCCC1`, the TGI with MOLT-4 leukemia, in the experiment on U251 CNS, in the experiment on NCI-H23 lung, with HT29 colon, with TK-10 renal and in the experiment on PC-3 prostate was more than 100 µM in each case. Also, the TGI in the experiment on LOX IMVI melanoma, in the experiment with A498 renal, in the experiment on BT-549 breast and in the experiment with SF-268 CNS was more than 100 µM in each case.
On to `Clc1nc(-[n+]2ccc(-c3ccncc3)cc2)nc(Nc2ccccc2)c1Cl`, for which the TGI with MOLT-4 leukemia, with U251 CNS, with NCI-H23 lung, with HT29 colon, in the experiment with TK-10 renal and in the experiment with PC-3 prostate was more than 100 µM throughout. Besides, the TGI in the experiment with LOX IMVI melanoma, in the experiment with A498 renal, with BT-549 breast and in the experiment with SF-268 CNS was more than 100 µM in each case.
`COc1ccc(C2(c3ccc(OC)cc3)OC(=O)c3cccc4cccc2c34)cc1`: the TGI was more than 100 µM with MOLT-4 leukemia; more than 100 µM in the experiment with U251 CNS; more than 100 µM in the experiment with NCI-H23 lung; 5.98 µM in the experiment on HT29 colon; 96.4 µM with TK-10 renal; 6.47 µM with PC-3 prostate. In addition, the TGI with LOX IMVI melanoma, in the experiment on A498 renal, with BT-549 breast and with SF-268 CNS was more than 100 µM each time.
Regarding `CCC1(CC)C(=O)CC[C@@]2(C)C1=CC[C@H]1[C@@H]3CC[C@H](O)[C@@]3(C)CC[C@@H]12`, the TGI in the experiment with MOLT-4 leukemia was 54.8 µM; in the experiment with U251 CNS, 33.9 µM; in the experiment on NCI-H23 lung, more than 100 µM; in the experiment with HT29 colon, 28.5 µM; in the experiment on TK-10 renal, 41.9 µM; in the experiment on PC-3 prostate, more than 100 µM. Moreover, the TGI in the experiment on LOX IMVI melanoma is 37.8 µM; in the experiment on A498 renal, 44.6 µM; in the experiment with BT-549 breast it was more than 100 µM; in the experiment with SF-268 CNS, 99.2 µM.
With `Cc1nnc2cc(C(=O)O)c3ccccc3n2c1=O`, the TGI in the experiment on MOLT-4 leukemia, in the experiment with U251 CNS, in the experiment with NCI-H23 lung, with HT29 colon, with TK-10 renal and with PC-3 prostate was more than 10 µM in each case. Besides, the TGI in the experiment on LOX IMVI melanoma, in the experiment with A498 renal, with BT-549 breast and with SF-268 CNS was more than 10 µM each time.
Take `CC(=O)O[C@H]1C#C/C=C\C#CC[C@@H]2C(=O)N(C(=O)OC(C)(C)C)[C@@H]12`: the TGI in the experiment with MOLT-4 leukemia is more than 53.5 µM; in the experiment on U251 CNS, more than 78.9 µM; in the experiment with NCI-H23 lung it was more than 69 µM; in the experiment with HT29 colon, more than 100 µM; in the experiment with TK-10 renal, more than 100 µM; in the experiment on PC-3 prostate, more than 100 µM. Also, the TGI was 45.3 µM in the experiment on LOX IMVI melanoma, more than 100 µM in the experiment on A498 renal, more than 81.4 µM in the experiment on BT-549 breast and more than 75.2 µM with SF-268 CNS.
